Data on one molecule can be found in US9428507B2, “Compounds for the treatment of malaria” (The Broad Institute, Inc., priority 2013, dated 2016).

Where two headings read alike, the source gives them in different places.

In assay [1] the test system is Dd2 strain of P. falciparum. Description: Activity against the Dd2 strain of P. falciparum (SYBR Green I, 72-h incubation). The assay is classed as cell-based. The following applies: Plasmodium falciparum, DD2, 72 h, read-out: EC^50 Dd2. Put shortly:
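SYBR Green I signal (ex 485, em 530 nm) measured growth, read after 24 h dark staining in saponin/Triton lysis buffer. Before that, compound-exposed Dd2 cultures (1% parasitemia, 1.0% hematocrit, 0.125% DMSO) grew 72 h at 37° C in low-oxygen gas. Background control: 20 μM mefloquine.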

Assay [2] concerns P. falciparum 3D7 gametocytes. Nature of the assay: P. falciparum gametocyte viability assay. The format is cell-based. The settings on record: Plasmodium falciparum, 72 hours, Cell-titer glo, read-out: IC50 erythocytic stage (P. falciparum) sexual (IV & V). On the procedure:
P. falciparum 3D7 stage Ill-V gametocytes were isolated by discontinuous Percoll gradient centrifugation of parasite cultures treated with 50 mM N-acetyl-D-glucosamine for 3 days to kill asexual parasites. Gametocytes (1.0×10^5) were seeded in 96-well plates and incubated with compounds for 72 hours. In vitro anti-gametocyte activity was measured using Cell-titer glo (Promega).

A further assay deals with P. falciparum FCB. Nature of the assay: In vitro P. falciparum blood-stage assay, strain FCB. The format is cell-based. The following applies: Plasmodium falciparum. The method, then:
(§1) Strains of Plasmodium falciparum (Dd2, 3D7, D6, K1, NF54, V1/3, HB3, 7G8, FCB, TM90C2B) were obtained from Malaria Research and Reference Reagent Resource Center (MR4). P. falciparum isolates were maintained with O-positive human blood in an atmosphere of 93% N2, 4% CO2, 3% O2 at 37° C. in complete culturing medium (10.4 g/L RPMI 1640, 5.94 g/L HEPES, 5 g/L albumax II, 50 mg/L hypoxanthine, 2.1 g/L sodium bicarbonate, 10% human serum and 43 mg/L gentamicin). Parasites were cultured in medium until the parasitemia reached 3-8%. Parasitemia was determined by checking at least 500 red blood cells from a Giemsa-stained blood smear. For the compound screening, a parasite suspension at 2.0% parasitemia and 2.0% hematocrit was created with medium. 25 μl of medium was dispensed into 384-well, black, clear-bottom plates. 100 nl of compounds in DMSO was transferred into the assay plates along with control compound (mefloquine). Next, 25 μl of the parasite suspension in medium was dispensed into the assay plates such that the final parasitemia was 1% and the final hematocrit was 1%. The assay plates were incubated for 72 hours at 37° C. […] The assay plates were read with 505 dichroic mirrors with 485-nm excitation and 530-nm emission settings.

A further assay relates to P. falciparum 7G8. Description: In vitro P. falciparum blood-stage assay, strain 7G8. The following applies: Plasmodium falciparum. The assay is classed as cell-based. The method, then:
as §1

Another assay relates to P. falciparum NF54. Nature of the assay: In vitro P. falciparum blood-stage assay, strain NF54. The assay is classed as cell-based. The following applies: Plasmodium falciparum. The method, then:
as §1

A further assay deals with P. cynomolgi. Description: In vitro P. cynomolgi liver stage assay in primary rhesus monkey hepatocytes. The assay is classed as cell-based. The settings on record: Plasmodium cynomolgi, Hepatocyte, in Macaca mulatta. The method, then:
An in vitro P. cynomolgi liver stage assay was performed as described in Zeeman et al. Antimicrobial Agents and Chemotherapy, 2014, 58:1586-1595. 96-well plates are seeded with freshly isolated or thawed cryopreserved stocks of primary rhesus monkey hepatocytes one or two days before infection with 5×10^4 freshly dissected P. cynomolgisporozoites per well. After 2-3 h of sporozoite invasion into the hepatocytes, culture medium is exchanged for culture medium containing appropriate compound dilutions. Initially, compounds are tested in duplicate in 3 dilutions: 0.1, 1 and 10 μM. Plates are incubated for 6 days with medium exchange (including compound dilutions) every other day. Plates are fixed in methanol and parasites are stained with rabbit anti-PcyHSP70 antiserum in the presence of DAPI to stain the nuclei. Plates are automatically counted in a high-content imager (Operetta®) and small parasites (hypnozoites, s.f.) and large schizonts (I.f.) are recorded, as well as number of hepatocytes as a measure for cytotoxic effects of the compounds. Controls include uninfected hepatocytes, sporozoite infected wells without compound and infected wells with primaquine and atovaquone. When activity is recorded and reported, a more extensive dilution curve can be evaluated: a 7-point 3-fold dilution series from days 0-6.

In assay [3] the test system is P. berghei (ANKA GFP-luc) sporozoites. Nature of the assay: In vivo P. berghei liver-stage assay. On the set-up: species or system CD-1 mice. The settings on record: orally at 50 mg/kg two hours after sporozoite inoculation. On the procedure: CD-1 mice (n=4 per experimental group; female; 6-7-week-old; 20-24 g) were inoculated intravenously with 1×10^5 freshly isolated P. berghei(ANKA GFP-luc) sporozoites intravenously, and compounds were administered orally at 50 mg/kg two hours later. Bioluminescence signals from the transgenic parasites were monitored by the In vivo Imaging System (IVIS 100, Xenogen; Caliper Life Sciences). Animals with parasitemia exceeding 20% were euthanized.

A further assay relates to P. falciparum Dd2. Nature of the assay: In vitro P. falciparum blood-stage assay, strain Dd2. The format is cell-based. The following applies: Plasmodium falciparum. On the procedure: as §1

As for `COc1ccc2c3c([nH]c2c1)[C@H](CO)N(C(C)=O)CC31CCN(C(=O)Nc2ccccc2F)CC1` [Compound 15, (R)-2′-acetyl-N-(2-fluorophenyl)-1′-(hydroxymethyl)-7′-methoxy-1′,2′,3′,9′-tetrahydrospiro [piperidine-4,4′-pyrido[3,4-b]indole]-1-carboxamide], the EC50 in assay [1] is 0.015 to 0.178 µM. Further, the IC50 in assay [2] is 0.643 µM; in the assay with P. falciparum FCB it was 130 nM; in the assay on P. falciparum 7G8, 113 nM; in the assay with P. falciparum NF54 it was 88 nM; in the assay with P. cynomolgi (large schizonts (l.f.), read-out: IC50 exo-erythrocytic stage P. cynomolgi (l.f)) it was 0.832 µM; in the assay with P. cynomolgi (small parasites (hypnozoites, s.f.), read-out: IC50 exo-erythrocytic stage P. cynomolgi (s.f)), 0.344 µM. This molecule also came in with an IC50 in the assay on P. falciparum Dd2 of 73 nM. For the same molecule, the “Parasitemia of treated animals (untreated controls: systemic parasitemia by day four)” value in assay [3] is “remained parasite free”. Also, the “Inhibition of the liver stage of P. berghei in vivo (FIG. 1)” value in assay [3] (bioluminescence) was “inhibit the liver stage”.

The IC50 is the midpoint of a concentration-inhibition curve.
